Assay results published in the SangsterLogP compilation.

Columns and labels:
[1] = method code SF-AS, from Wang, W.; Wang, L.; Tian, L.; Zhang, Z.; Qiu, J. (1987). Partition coefficients of the intermediate of pyrethroid in n-octanol/water system. Huazhong Gongxueyuan Xuebao, 15(1)135-137.

| SMILES | logP [1] | logP |
| --- | --- | --- |
| C=CCOCc1ccccc1 | 2.41 |  |
| ClCc1ccc(Cl)cc1 | 3.18 |  |
| Cc1ccc(CC#N)cc1 | 1.67 |  |
| COCc1ccc(CC#N)cc1 | 1.23 |  |
| N#CCc1ccc(Cl)cc1 | 2.47 |  |
| COCc1ccccc1 | 1.67 |  |
| CCOCc1ccccc1 | 2.16 |  |
| COCc1ccc(C#N)cc1 |  | 1.23 |
| COCc1ccc(COC)cc1 | 1.28 |  |
| CC(C)C(C#N)c1ccc(Cl)cc1 (stereo not given) | 3.41 |  |
